Results published in publication PMC5635026, “Homo-PROTACs: bivalent small-molecule dimerizers of the VHL E3 ubiquitin ligase to induce self-degradation” (Nature Communications, 2017).

How the values were obtained:
[1] = tested on: Hdy-HIF-1α; test: Immunoblot of HIF-1α / hydroxylated HIF-1α levels in HeLa cells; type: cell-based, Human; settings: HeLa; for protein levels of hydroxylated HIF-1α (Hdy-HIF-1α): 1 µM, 10 h; for stabilization of Hdy-HIF-1α: 100 µM
Description: (§1) Cell culture. Human cell lines HeLa, U2OS and HEK 293, purchased from ATCC, were propagated in DMEM supplemented with 10% fetal bovine serum (FBS), L- glutamine, 100 μg ml^−1 of penicillin/streptomycin at 37 °C and 5% CO2. Cells were maintained for no more than 30 passages. All cell lines were routinely tested for mycoplasma contamination using MycoAlert kit from Lonza. For compound treatment experiments, cells were transferred in six-well plates with either 3 × 10^5 or 5 × 10^5 cells per well in 2 ml of media. At 80% confluence, cells were treated with compounds at the desired concentration, reaching final DMSO concentration of 0.1% v/v. Cells were incubated at 37 °C and 5% CO2 for the desired time before harvesting.
(§2) Immunoblotting. Cells were lysed in lysis buffer (20 mM Tris pH 8, 150 mM NaCl, 1% Triton × 100) and a protease inhibitor cocktail (Roche) per 10 ml buffer. For protein extracts, the dishes were placed on ice. The media was aspirated and the tissue layer washed twice with ice-cold phosphate buffer saline (PBS). Lysis buffer (120 μl) was added and the cells detached from the surface with a cell scraper. After removal of the insoluble fraction by centrifugation, the protein concentration of the supernatant was determined by Pierce™ Coomassie (Bradford) Protein Assay Kit. Protein extracts were fractionated by SDS-PAGE on 4–12% Tris-Acetate NuPage® Novex® (Life Technologies) polyacrylamide gels and transferred to a nitrocellulose membrane using wet transfer. The membrane was then blocked with 5 % w/v Bovine serum albumin (BSA) in Tris-buffered saline (TBS) with 0.1% w/v Tween-20. For detecting proteins the following primary antibodies in the given concentrations were used: anti-β-Actin (Cell Signaling Technology, 4970S, 13E5) 1:2000, anti-VHL (Cell Signaling Technology, #68547) 1:1000, anti-Hif-1α (BD Biosciences, 610959, clone 54) 1:1,000, anti-hydroxy-HIF-1α (Hyp564) (Cell Signaling Techonology; #3434) 1:1,000, anti-PHD2 (Bethyl Laboratories; A300-322A) 1:1,000, anti-PHD3 (Bethyl Laboratories; A300-327A) 1:1000, anti-CRBN (Proteintech; 11435-1-AP) 1:1,000. Following incubation with a horseradish peroxidase-conjugated secondary antibody (Cell Signaling Technology), the signal was developed using enhanced chemiluminescence (ECL) Western Blotting Detection Kit (Amersham) on Amersham Hyperfilm ECL film (Amersham). Band quantification was performed using ImageJ software and reported as relative amount as ratio of the each protein band relative to the lane’s loading control. The values obtained were then normalized to 0.1% DMSO vehicle control. See Supplementary Fig. 12 for full-scanned images of western-blots shown in the main text figures.

[2] = target: pVHL30 (Homo sapiens, UniProt P40337); test: Immunoblot of pVHL30 protein level in U2OS cells (time course); type: cell-based; set-up: endogenous in cells; settings: for cellular efficacy at longer time points: after 36 h; for time of treatment to complete degradation of pVHL30: time course
pVHL30, sequence (P40337 whole entry): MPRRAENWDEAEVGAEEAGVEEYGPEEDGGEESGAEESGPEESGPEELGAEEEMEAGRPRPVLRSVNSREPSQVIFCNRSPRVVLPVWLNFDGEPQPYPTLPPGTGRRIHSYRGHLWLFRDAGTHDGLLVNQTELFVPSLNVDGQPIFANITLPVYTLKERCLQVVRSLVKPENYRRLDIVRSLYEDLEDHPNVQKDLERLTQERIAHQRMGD
Description: as §1, §2

[3] = tested on: Dermcidin (DCD); test: TMT MS proteomics in HeLa cells, DCD abundance; type: cell-based, Homo sapiens; settings: 1 µM, 10 h, two replicates
Description: (§3) MS proteomics. Sample preparation. HeLa cells were seeded at 5 × 10^6 on a 10 cm plate 16 h before treatment. […] Cells were incubated at 37 °C and 5% CO2 for 10 h before harvesting. Cells were placed on ice and medium was removed and cells were washed twice with cold PBS. Cells were lysed in 0.5 ml of 100 mM Tris pH 8.0, 4% (w/v) SDS supplemented with protease inhibitor cocktail (Roche). The lysate was pulse sonicated briefly and then centrifuged at 17,000 × g for 15 min at 4 °C. The supernatant fraction of cell extract was snap-frozen in liquid nitrogen and stored in −80 °C freezer. Further sample processing, digestion, desalting, labeling and fractionation were performed as previously described.
(§4) nLC-MS/MS analysis. The TMT 10plex fractions were first analyzed as previously described. Briefly, the TMT 10plex fractions were analyzed sequentially on a Q Exactive HF Hybrid Quadrupole-Orbitrap Mass Spectrometer (Thermo Scientific) coupled to an UltiMate 3000 RSLCnano UHPLC system (Thermo Scientific) and EasySpray column (75 μm × 50 cm, PepMap RSLC C18 column, 2 μm, 100 Å, Thermo Scientific). The MS2 isolation window was set to 0.4 Da and the resolution set at 120,000. MS2 resolution was set at 60,000. The AGC targets for MS1 and MS2 were set at 3e^6 ions and 1e5 ions, respectively. The normalized collision energy was set at 32%. […] After the first analysis, the TMT labeled fractions were re-analyzed on the Q-Exactive HF using the same instrument settings and a target list generated from a theoretical trypsin digest of VHL. […] After the second analysis, two fractions were further analyzed using a targeted SIM/ddMS2 method on the Q-Exactive HF. […]
(§5) Peptide and protein identification. All the raw MS data files from the three analyses were merged and searched against the Uniprot-sprot-Trembl-Human-Canonical database by Maxquant software 1.5.3.30 for protein identification and TMT reporter ion quantitation. […] Quantified proteins were filtered if the absolute fold-change difference between the two DMSO replicates was ≥ 1.5.

[4] = tested on: Putative glycerol kinase 5 (GK5); test: TMT MS proteomics in HeLa cells, GK5 abundance; type: cell-based, Homo sapiens; settings: 1 µM, 10 h, two replicates
Description: as §3, §4, §5

Cc1ncsc1-c1ccc(CNC(=O)[C@@H]2C[C@@H](O)CN2C(=O)[C@@H](NC(=O)COCCOCCOCCOCCOCCOCC(=O)N[C@H](C(=O)N2C[C@H](O)C[C@H]2C(=O)NCc2ccc(-c3scnc3C)cc2)C(C)(C)C)C(C)(C)C)cc1 [CM11, N ^1 ,N ^20-bis((S)-1-((2S,4R)-4-hydroxy-2-((4-(4-methylthiazol-5-yl)benzyl)carbamoyl)pyrrolidin-1-yl)-3,3-dimethyl-1-oxobutan-2-yl)-3,6,9,12,15,18-hexaoxaicosanediamide]
protein levels of hydroxylated HIF-1α (Hdy-HIF-1α) [1]: detectable albeit low increase | stabilization of Hdy-HIF-1α [1]: comparable with the effect obtained with VH032 alone | cellular efficacy at longer time points [2]: retained their efficacy | time of treatment to complete degradation of pVHL30 [2]: 1 h | average normalized ratio to DMSO, DCD [3]: 0.87 | average normalized ratio to DMSO, GK5 [4]: 0.94

Cc1ncsc1-c1ccc(CNC(=O)[C@@H]2C[C@@H](O)CN2C(=O)[C@@H](NC(=O)COCCOCCOCCOCCOCC(=O)N[C@H](C(=O)N2C[C@H](O)C[C@H]2C(=O)NCc2ccc(-c3scnc3C)cc2)C(C)(C)C)C(C)(C)C)cc1 [CM10, N ^1 ,N ^17-bis((S)-1-((2S,4R)-4-hydroxy-2-((4-(4-methylthiazol-5-yl)benzyl)carbamoyl)pyrrolidin-1-yl)-3,3-dimethyl-1-oxobutan-2-yl)-3,6,9,12,15-pentaoxaheptadecanediamide]
protein levels of hydroxylated HIF-1α (Hdy-HIF-1α) [1]: detectable albeit low increase | stabilization of Hdy-HIF-1α [1]: comparable with the effect obtained with VH032 alone | cellular efficacy at longer time points [2]: retained their efficacy | time of treatment to complete degradation of pVHL30 [2]: 2 h | average normalized ratio to DMSO, DCD [3]: 1.33 | average normalized ratio to DMSO, GK5 [4]: 1.22

Cc1ncsc1-c1ccc(CNC(=O)[C@@H]2C[C@@H](O)CN2C(=O)[C@@H](NC(=O)COCCOCCOCCOCC(=O)N[C@H](C(=O)N2C[C@H](O)C[C@H]2C(=O)NCc2ccc(-c3scnc3C)cc2)C(C)(C)C)C(C)(C)C)cc1 [CM09, N ^1 ,N ^14-bis((S)-1-((2S,4R)-4-hydroxy-2-((4-(4-methylthiazol-5-yl)benzyl)carbamoyl)pyrrolidin-1-yl)-3,3-dimethyl-1-oxobutan-2-yl)-3,6,9,12-tetraoxatetradecanediamide]
stabilization of Hdy-HIF-1α [1]: comparable with the effect obtained with VH032 alone | cellular efficacy at longer time points [2]: lost its cellular efficacy | time of treatment to complete degradation of pVHL30 [2]: 2 h | average normalized ratio to DMSO, DCD [3]: 1.41 | average normalized ratio to DMSO, GK5 [4]: 1.05
